These results are taken from ChEMBL document CHEMBL5723379, “Affinity On-target Cellular Literature for EUbOPEN Chemogenomic Library” (2024).

The target of one experiment is Vitamin D3 receptor (Homo sapiens, UniProt P11473). Briefly: Affinity On-target Cellular interaction: (Reporter gene assay (HEK293T cells)) EUB0000582a VDR. The class given is functional, cell-based, HEK-293T. Also noted: mode of action Agonist, recommended concentration 1 uM. Background: A reporter such as luciferase makes a cellular process visible.
Sequence of Vitamin D3 receptor (P11473 whole entry): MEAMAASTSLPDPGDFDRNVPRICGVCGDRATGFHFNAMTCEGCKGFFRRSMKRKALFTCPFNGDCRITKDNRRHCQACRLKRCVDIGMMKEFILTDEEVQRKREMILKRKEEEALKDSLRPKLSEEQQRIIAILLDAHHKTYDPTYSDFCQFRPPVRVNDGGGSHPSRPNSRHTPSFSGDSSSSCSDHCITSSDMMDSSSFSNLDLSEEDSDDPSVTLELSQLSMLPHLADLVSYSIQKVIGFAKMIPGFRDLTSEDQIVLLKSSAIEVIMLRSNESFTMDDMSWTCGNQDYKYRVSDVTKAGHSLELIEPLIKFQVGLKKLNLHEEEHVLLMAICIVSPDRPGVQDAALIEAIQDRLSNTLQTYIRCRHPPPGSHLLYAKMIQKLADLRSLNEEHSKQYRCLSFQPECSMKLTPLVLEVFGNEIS
For experiment [1], the target named is T1, Peroxisome proliferator-activated receptor gamma (Homo sapiens, UniProt P37231).
T1 sequence (P37231 whole entry): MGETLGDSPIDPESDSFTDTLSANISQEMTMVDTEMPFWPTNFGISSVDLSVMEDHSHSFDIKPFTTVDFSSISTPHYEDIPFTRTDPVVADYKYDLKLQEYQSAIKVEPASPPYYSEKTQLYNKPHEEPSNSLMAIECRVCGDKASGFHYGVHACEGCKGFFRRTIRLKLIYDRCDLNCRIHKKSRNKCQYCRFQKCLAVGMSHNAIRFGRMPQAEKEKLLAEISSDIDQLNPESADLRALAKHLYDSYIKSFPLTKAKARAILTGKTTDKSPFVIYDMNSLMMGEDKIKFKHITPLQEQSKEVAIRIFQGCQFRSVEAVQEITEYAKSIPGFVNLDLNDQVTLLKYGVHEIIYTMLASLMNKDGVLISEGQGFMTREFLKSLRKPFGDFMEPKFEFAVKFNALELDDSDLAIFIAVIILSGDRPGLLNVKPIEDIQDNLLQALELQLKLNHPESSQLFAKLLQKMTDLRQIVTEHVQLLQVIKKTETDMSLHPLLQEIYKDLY
In words: Affinity On-target Cellular interaction: (Reporter gene assay (HEK293T cells)) EUB0001150a PPARG. The class given is functional, cell-based, HEK-293T. Further details: mode of action Antagonist, recommended concentration 10 uM.

For experiment [2], the target named is T2, Peroxisome proliferator-activated receptor alpha (Homo sapiens, UniProt Q07869).
T2 sequence (Q07869 whole entry): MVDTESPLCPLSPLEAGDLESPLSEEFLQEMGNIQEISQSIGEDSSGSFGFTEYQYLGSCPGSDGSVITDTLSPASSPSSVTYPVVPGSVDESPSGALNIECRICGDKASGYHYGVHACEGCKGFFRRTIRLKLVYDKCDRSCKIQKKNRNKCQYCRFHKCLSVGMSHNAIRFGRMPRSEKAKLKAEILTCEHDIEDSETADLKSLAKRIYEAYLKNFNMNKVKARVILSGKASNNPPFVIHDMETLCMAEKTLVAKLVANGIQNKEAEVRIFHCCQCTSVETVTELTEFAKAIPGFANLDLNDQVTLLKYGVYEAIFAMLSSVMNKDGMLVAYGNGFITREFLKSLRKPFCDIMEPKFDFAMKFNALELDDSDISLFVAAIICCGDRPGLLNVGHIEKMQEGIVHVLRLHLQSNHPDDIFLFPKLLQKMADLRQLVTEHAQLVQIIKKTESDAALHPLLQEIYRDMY
In words: Affinity On-target Cellular interaction: (Reporter gene assay (HEK293T cells)) EUB0001150a PPARA. The class given is functional, cell-based, HEK-293T. Further details: mode of action Antagonist, recommended concentration 10 uM.

Experiment [3] deals with T3, Peroxisome proliferator-activated receptor delta (Homo sapiens, UniProt Q03181).
T3 sequence (Q03181 whole entry): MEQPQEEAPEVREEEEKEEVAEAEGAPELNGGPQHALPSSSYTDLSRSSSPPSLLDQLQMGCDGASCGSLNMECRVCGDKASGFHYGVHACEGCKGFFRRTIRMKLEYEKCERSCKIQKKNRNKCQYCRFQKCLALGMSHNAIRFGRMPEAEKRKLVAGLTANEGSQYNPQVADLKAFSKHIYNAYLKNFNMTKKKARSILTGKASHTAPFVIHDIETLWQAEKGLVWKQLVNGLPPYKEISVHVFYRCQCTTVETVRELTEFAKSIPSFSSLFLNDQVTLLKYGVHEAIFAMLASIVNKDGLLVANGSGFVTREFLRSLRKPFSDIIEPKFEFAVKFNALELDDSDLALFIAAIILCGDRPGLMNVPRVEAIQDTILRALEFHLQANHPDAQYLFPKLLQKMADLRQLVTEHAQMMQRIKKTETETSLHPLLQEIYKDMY
In words: Affinity On-target Cellular interaction: (Reporter gene assay (HEK293T cells)) EUB0001141a PPARD. Further details: mode of action Agonist, recommended concentration 1 uM. The class given is functional, cell-based, HEK-293T.

For experiment [4], the target named is T4, Oxysterols receptor LXR-beta (Homo sapiens, UniProt P55055).
T4 sequence (P55055 whole entry): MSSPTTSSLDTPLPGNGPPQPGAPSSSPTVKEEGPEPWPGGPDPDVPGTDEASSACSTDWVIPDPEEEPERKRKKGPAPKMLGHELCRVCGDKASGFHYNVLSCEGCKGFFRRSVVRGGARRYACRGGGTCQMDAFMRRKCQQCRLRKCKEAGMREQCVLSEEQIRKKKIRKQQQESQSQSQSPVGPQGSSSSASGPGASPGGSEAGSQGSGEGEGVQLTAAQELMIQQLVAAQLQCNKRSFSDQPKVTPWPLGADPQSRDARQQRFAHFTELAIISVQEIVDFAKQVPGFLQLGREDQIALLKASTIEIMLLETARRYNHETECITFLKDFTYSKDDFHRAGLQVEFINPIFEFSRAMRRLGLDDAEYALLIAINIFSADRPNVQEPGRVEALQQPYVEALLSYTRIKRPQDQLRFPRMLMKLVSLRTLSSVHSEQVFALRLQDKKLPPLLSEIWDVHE

Experiment [5] deals with T5, Oxysterols receptor LXR-alpha (Homo sapiens, UniProt Q13133).
T5 sequence (Q13133 whole entry): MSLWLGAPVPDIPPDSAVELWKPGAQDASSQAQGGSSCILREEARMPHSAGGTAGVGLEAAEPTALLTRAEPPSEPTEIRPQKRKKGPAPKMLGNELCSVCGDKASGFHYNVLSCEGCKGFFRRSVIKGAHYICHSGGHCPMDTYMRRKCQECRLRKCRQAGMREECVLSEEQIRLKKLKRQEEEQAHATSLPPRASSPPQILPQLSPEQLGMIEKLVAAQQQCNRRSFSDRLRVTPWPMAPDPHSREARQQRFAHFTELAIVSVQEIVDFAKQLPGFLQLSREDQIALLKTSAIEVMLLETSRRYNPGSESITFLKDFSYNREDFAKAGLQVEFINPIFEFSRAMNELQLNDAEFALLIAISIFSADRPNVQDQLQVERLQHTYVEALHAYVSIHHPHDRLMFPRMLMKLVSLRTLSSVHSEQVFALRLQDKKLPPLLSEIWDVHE
Briefly: Affinity On-target Cellular interaction: (Reporter gene assay (HEK293T cells)) EUB0000082b NR1H3. The class given is functional, cell-based, HEK-293T. Also noted: mode of action Agonist, recommended concentration 3 uM.

Experiment [6] addresses Retinoic acid receptor alpha (Homo sapiens, UniProt P10276). In words: Affinity On-target Cellular interaction: (Reporter gene assay (HEK293T cells)) EUB0000565a RARA. The class given is functional, cell-based, HEK-293T. Also noted: mode of action Agonist, recommended concentration 1 uM.
Experiment [7] concerns the target T3, Peroxisome proliferator-activated receptor delta.
The target of experiment [8] is T2, Peroxisome proliferator-activated receptor alpha. In words: Affinity On-target Cellular interaction: (Reporter gene assay (HEK293T cells)) EUB0001144a PPARA. Further details: mode of action Agonist, recommended concentration 1 uM. The class given is functional, cell-based, HEK-293T.
Experiment [9] deals with T1, Peroxisome proliferator-activated receptor gamma. Briefly: Affinity On-target Cellular interaction: (Reporter gene assay (HEK293T cells)) EUB0001144a PPARG. The class given is functional, cell-based, HEK-293T. Also noted: mode of action Agonist, recommended concentration 1 uM.
In experiment [10] the target is T2, Peroxisome proliferator-activated receptor alpha. In words: Affinity On-target Cellular interaction: (Reporter gene assay (HEK293T cells)) EUB0001140a PPARA. The class given is functional, cell-based, HEK-293T. Also noted: mode of action Agonist, recommended concentration 1 uM.
Experiment [11] concerns the target T4, Oxysterols receptor LXR-beta. In words: Affinity On-target Cellular interaction: (Reporter gene assay (HEK293T cells)) EUB0000572aCl NR1H2. Also noted: mode of action Agonist, recommended concentration 3 uM. The class given is functional, cell-based, HEK-293T.
Experiment [12] concerns the target T1, Peroxisome proliferator-activated receptor gamma. Briefly: Affinity On-target Cellular interaction: (Reporter gene assay (HEK293T cells)) EUB0000571a PPARG. The class given is functional, cell-based, HEK-293T. Further details: mode of action Agonist, recommended concentration 1 uM.
Experiment [13] deals with T2, Peroxisome proliferator-activated receptor alpha. Briefly: Affinity On-target Cellular interaction: (Reporter gene assay (HEK293T cells)) EUB0001147a PPARA. Also noted: mode of action Agonist, recommended concentration 1 uM. The class given is functional, cell-based, HEK-293T.
The target in experiment [14] is T1, Peroxisome proliferator-activated receptor gamma. In words: Affinity On-target Cellular interaction: (Reporter gene assay (HEK293T cells)) EUB0001147a PPARG. The class given is functional, cell-based, HEK-293T. Further details: mode of action Agonist, recommended concentration 1 uM.

Sequence of Retinoic acid receptor alpha (P10276 whole entry): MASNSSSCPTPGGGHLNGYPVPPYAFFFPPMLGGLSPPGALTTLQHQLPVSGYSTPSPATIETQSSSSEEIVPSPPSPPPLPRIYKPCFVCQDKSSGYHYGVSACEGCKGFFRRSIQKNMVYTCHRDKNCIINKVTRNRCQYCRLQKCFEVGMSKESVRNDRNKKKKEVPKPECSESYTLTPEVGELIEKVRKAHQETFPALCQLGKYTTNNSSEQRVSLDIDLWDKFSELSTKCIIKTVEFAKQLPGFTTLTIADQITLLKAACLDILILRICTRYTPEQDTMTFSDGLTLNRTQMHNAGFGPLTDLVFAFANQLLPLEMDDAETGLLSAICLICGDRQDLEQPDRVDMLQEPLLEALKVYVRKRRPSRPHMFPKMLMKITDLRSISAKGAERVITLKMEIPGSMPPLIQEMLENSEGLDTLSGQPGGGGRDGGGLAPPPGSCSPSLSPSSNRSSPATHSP

On Vitamin D3 receptor, `C=C1/C(=C\C=C2/CCC[C@]3(C)[C@@H]([C@H](C)/C=C/C=C/C(O)(CC)CC)CC[C@@H]23)C[C@@H](O)C[C@@H]1O` [SEOCALCITOL] showed an EC50 of 110 nM. In other words, the sub-micromolar range.

`COC(=O)c1sccc1S(=O)(=O)Nc1ccc(Nc2ccccc2)cc1OC`: the half-maximal inhibitory concentration (IC50) worked out at 7.6 µM in experiment [1] and 6.1 µM in experiment [2].

Compound `Cc1nc(-c2ccc(C(F)(F)F)cc2)sc1C(=O)NCc1ccc(OC(C)(C)C(=O)O)cc1` [GW590735] gave an EC50 in experiment [3] of 160 nM.

For `Fc1ccc(-c2c3cccc(C(F)(F)F)c3nn2Cc2ccc(F)cc2Cl)cc1` [LXR-623], the EC50 in experiment [4] turned out to be 4 µM; in experiment [5], 7 µM.

On to `CC1(C)C(=O)C(C)(C)c2cc(C(=O)Nc3ccc(C(=O)O)cc3)ccc21`, for which, in experiment [6], the EC50 was found to be 110 nM.

For `O=C(O)CCCc1cc2cc(Cl)ccc2n1S(=O)(=O)c1ccc2ncsc2c1` [LANIFIBRANOR], the EC50 in experiment [7] amounted to 900 nM.

Take `CCO[C@@H](Cc1ccc(OCCc2ccc(OS(C)(=O)=O)cc2)cc1)C(=O)O` [TESAGLITAZAR]: the EC50 is 290 nM in experiment [8] and 130 nM in experiment [9].

In turn, `COc1ccc(OC(=O)N(CC(=O)O)Cc2ccc(OCCc3nc(-c4ccccc4)oc3C)cc2)cc1` [MURAGLITAZAR] registered an EC50 in experiment [10] of 50 nM.

As to `O=C(O)Cc1cccc(OCCCN(Cc2cccc(C(F)(F)F)c2Cl)CC(c2ccccc2)c2ccccc2)c1`, the EC50 in [11] is 2100 nM.

The compound `COC(=O)C(Cc1ccc(OCCn2c(=O)sc3cc(C(=O)c4ccccc4)ccc32)cc1)C(=O)OC` gave an EC50 in experiment [12] of 42 nM.

Regarding `CSc1ccc(C(=O)/C=C/c2cc(C)c(OC(C)(C)C(=O)O)c(C)c2)cc1` [ELAFIBRANOR], the values for the EC50 in experiment [13] and in experiment [14] were 130 nM and 410 nM, respectively.

What is called EC50 is the midpoint of the concentration-response curve. Lower therefore signals a more potent agent. As a reminder, the IC50 is the concentration that gives 50% inhibition. A low value points to greater potency.
